What was measured:
Type in all cases: cell-based
[1] = biological target: proteins of U3A human fibrosarcoma cells (4462 proteins detected) (Homo sapiens, UniProt Q5SZL2); details: protein CEP85L; U3A, 10 μM, 2 h
[2] = biological target: proteins of U3A human fibrosarcoma cells (4462 proteins detected) (Homo sapiens, UniProt Q99848); details: protein EBNA1BP2; U3A cells
[3] = biological target: proteins of U3A human fibrosarcoma cells (4462 proteins detected) (Homo sapiens, UniProt Q14790); details: protein CASP8; U3A, 10 μM, 2 h
Sequence of proteins of U3A human fibrosarcoma cells (4462 proteins detected) (Homo sapiens, UniProt Q14790) (Q14790 217-479): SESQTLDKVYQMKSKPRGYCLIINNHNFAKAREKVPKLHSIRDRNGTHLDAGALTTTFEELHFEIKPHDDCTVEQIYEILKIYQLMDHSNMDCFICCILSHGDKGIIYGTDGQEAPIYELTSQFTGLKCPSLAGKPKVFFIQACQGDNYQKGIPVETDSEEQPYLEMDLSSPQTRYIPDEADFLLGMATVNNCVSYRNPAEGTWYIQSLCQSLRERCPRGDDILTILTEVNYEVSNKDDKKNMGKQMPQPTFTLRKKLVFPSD

[4] = biological target: proteins of U3A human fibrosarcoma cells (4462 proteins detected) (Homo sapiens, UniProt Q53H96); details: protein PYCRL; U3A, 10 μM, 2 h
Sequence of proteins of U3A human fibrosarcoma cells (4462 proteins detected) (Homo sapiens, UniProt Q53H96) (Q53H96 whole entry): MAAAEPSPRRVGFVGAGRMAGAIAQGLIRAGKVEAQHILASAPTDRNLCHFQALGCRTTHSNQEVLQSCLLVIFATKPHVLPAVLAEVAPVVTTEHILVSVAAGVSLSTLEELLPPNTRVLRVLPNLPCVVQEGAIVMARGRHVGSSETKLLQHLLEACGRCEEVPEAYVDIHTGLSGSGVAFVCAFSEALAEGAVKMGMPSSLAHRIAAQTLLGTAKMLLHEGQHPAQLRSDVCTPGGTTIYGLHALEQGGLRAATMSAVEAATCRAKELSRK

[5] = biological target: proteins of U3A human fibrosarcoma cells (4462 proteins detected) (Homo sapiens, UniProt P68366); details: protein TUBA4A; U3A cells
[6] = biological target: proteins of U3A human fibrosarcoma cells (4462 proteins detected) (Homo sapiens, UniProt Q15428); details: protein SF3A2; U3A cells
[7] = biological target: proteins of U3A human fibrosarcoma cells (4462 proteins detected) (Homo sapiens, UniProt P21283); details: protein ATP6V1C1; soluble abundance after heat, U3A cells
Sequence of proteins of U3A human fibrosarcoma cells (4462 proteins detected) (Homo sapiens, UniProt P21283) (P21283 whole entry): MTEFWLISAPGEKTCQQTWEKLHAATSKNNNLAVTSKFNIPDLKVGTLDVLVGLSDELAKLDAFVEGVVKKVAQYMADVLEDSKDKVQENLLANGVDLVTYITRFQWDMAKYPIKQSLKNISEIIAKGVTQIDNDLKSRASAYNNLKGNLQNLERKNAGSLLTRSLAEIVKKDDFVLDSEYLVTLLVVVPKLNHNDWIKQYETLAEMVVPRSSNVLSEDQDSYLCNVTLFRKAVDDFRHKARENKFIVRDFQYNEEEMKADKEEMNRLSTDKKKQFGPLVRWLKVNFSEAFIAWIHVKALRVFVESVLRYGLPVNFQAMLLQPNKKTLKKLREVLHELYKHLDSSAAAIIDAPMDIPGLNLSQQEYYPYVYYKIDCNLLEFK

[8] = biological target: proteins of U3A human fibrosarcoma cells (4462 proteins detected) (Homo sapiens, UniProt P51659); details: protein HSD17B4; U3A cells
[9] = biological target: proteins of U3A human fibrosarcoma cells (4462 proteins detected) (Homo sapiens, UniProt Q9Y399); details: protein MRPS2; U3A, 10 μM, 2 h
[10] = biological target: proteins of U3A human fibrosarcoma cells (4462 proteins detected) (Homo sapiens, UniProt Q9BUJ2); details: protein HNRNPUL1, U3A cells
[11] = biological target: proteins of U3A human fibrosarcoma cells (4462 proteins detected) (Homo sapiens, UniProt Q8WUA7); details: protein TBC1D22A; soluble abundance after heat, U3A cells
Sequence of proteins of U3A human fibrosarcoma cells (4462 proteins detected) (Homo sapiens, UniProt Q8WUA7) (Q8WUA7 whole entry): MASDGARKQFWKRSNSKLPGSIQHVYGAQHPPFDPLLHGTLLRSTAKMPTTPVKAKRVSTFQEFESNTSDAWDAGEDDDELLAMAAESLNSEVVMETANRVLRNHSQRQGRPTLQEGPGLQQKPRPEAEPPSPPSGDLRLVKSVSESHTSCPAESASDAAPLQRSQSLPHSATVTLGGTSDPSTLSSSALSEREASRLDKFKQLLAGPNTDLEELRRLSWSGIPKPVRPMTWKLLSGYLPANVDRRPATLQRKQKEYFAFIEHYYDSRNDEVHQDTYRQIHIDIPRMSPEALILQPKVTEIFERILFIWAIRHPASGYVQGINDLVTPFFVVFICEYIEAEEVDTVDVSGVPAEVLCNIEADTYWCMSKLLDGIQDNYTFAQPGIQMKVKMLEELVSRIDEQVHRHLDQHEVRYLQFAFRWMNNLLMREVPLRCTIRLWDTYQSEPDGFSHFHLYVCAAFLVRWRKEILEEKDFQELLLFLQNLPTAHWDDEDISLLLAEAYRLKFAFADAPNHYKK

[12] = biological target: proteins of U3A human fibrosarcoma cells (4462 proteins detected) (Homo sapiens, UniProt Q9P2R7); details: protein SUCLA2; U3A, 10 μM, 2 h
[13] = biological target: proteins of U3A human fibrosarcoma cells (4462 proteins detected) (Homo sapiens, UniProt O00391); details: protein QSOX1; U3A cells
[14] = biological target: proteins of U3A human fibrosarcoma cells (4462 proteins detected) (Homo sapiens, UniProt P22413); details: protein ENPP1; U3A cells
[15] = biological target: proteins of U3A human fibrosarcoma cells (4462 proteins detected) (Homo sapiens, UniProt P29353); details: protein SHC1; U3A cells
Sequence of proteins of U3A human fibrosarcoma cells (4462 proteins detected) (Homo sapiens, UniProt P29353) (P29353 whole entry): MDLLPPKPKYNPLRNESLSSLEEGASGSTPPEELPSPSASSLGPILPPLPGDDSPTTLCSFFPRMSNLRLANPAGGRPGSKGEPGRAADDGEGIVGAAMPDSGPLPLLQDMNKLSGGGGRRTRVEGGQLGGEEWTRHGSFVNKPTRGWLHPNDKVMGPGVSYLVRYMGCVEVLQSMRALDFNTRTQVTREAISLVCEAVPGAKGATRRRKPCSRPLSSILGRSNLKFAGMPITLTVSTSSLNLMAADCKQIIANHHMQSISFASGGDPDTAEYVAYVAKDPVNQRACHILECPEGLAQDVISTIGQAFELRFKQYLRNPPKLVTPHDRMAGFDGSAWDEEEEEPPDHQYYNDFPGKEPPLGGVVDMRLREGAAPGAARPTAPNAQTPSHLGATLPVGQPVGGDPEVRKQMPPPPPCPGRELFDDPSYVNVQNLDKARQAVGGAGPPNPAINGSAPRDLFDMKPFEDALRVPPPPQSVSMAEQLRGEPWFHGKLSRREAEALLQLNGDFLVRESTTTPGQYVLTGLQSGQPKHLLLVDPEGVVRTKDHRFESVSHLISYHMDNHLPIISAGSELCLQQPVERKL

[16] = biological target: proteins of U3A human fibrosarcoma cells (4462 proteins detected) (Homo sapiens, UniProt Q8WXD5); details: protein GEMIN6, U3A cells
[17] = biological target: proteins of U3A human fibrosarcoma cells (4462 proteins detected) (Homo sapiens, UniProt P56277); details: protein CMC4; U3A, 10 μM, 2 h
[18] = biological target: proteins of U3A human fibrosarcoma cells (4462 proteins detected) (Homo sapiens, UniProt O15164); details: protein TRIM24; U3A cells
[19] = biological target: proteins of U3A human fibrosarcoma cells (4462 proteins detected) (Homo sapiens, UniProt Q8IW35); details: protein CEP97; U3A, 10 μM, 2 h
[20] = biological target: proteins of U3A human fibrosarcoma cells (4462 proteins detected) (Homo sapiens, UniProt Q9BVW5); details: protein TIPIN, U3A cells
Sequence of proteins of U3A human fibrosarcoma cells (4462 proteins detected) (Homo sapiens, UniProt Q9BVW5) (Q9BVW5 whole entry): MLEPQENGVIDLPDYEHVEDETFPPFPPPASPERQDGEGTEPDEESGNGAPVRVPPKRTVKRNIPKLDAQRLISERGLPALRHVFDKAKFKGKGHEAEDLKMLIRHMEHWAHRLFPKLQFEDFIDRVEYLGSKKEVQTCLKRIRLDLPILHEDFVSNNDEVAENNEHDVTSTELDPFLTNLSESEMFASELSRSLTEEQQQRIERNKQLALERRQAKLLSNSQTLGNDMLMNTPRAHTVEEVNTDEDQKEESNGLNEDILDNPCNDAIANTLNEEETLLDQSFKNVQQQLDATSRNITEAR

[21] = biological target: proteins of U3A human fibrosarcoma cells (4462 proteins detected) (Homo sapiens, UniProt Q9NXR8); details: protein ING3, U3A cells
[22] = biological target: proteins of U3A human fibrosarcoma cells (4462 proteins detected) (Homo sapiens, UniProt O75674); details: protein TOM1L1; soluble abundance after heat, U3A cells
[23] = biological target: proteins of U3A human fibrosarcoma cells (4462 proteins detected) (Homo sapiens, UniProt P63146); details: protein UBE2B, U3A cells
[24] = biological target: proteins of U3A human fibrosarcoma cells (4462 proteins detected) (Homo sapiens, UniProt Q96PK6); details: protein RBM14; soluble abundance after heat, U3A cells
Sequence of proteins of U3A human fibrosarcoma cells (4462 proteins detected) (Homo sapiens, UniProt Q96PK6) (Q96PK6 whole entry): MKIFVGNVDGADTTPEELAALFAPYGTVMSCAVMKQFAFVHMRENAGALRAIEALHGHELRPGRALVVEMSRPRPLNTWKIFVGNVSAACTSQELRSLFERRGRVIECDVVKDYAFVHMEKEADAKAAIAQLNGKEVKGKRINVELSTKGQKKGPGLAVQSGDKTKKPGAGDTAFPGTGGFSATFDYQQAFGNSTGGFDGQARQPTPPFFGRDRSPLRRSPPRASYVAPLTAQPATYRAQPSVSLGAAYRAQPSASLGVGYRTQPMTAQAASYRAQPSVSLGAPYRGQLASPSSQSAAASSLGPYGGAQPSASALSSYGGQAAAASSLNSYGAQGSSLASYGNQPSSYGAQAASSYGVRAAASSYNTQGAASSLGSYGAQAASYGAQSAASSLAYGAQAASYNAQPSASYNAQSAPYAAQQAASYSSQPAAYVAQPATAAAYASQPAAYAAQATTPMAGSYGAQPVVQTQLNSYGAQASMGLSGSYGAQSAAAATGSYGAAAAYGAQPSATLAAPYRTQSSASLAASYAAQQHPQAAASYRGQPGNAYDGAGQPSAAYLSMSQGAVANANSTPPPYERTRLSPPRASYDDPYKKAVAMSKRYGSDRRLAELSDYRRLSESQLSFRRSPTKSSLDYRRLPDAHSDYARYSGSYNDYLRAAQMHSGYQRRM

[25] = biological target: proteins of U3A human fibrosarcoma cells (4462 proteins detected) (Homo sapiens, UniProt Q9UMS4); details: protein PRPF19; U3A cells
Sequence of proteins of U3A human fibrosarcoma cells (4462 proteins detected) (Homo sapiens, UniProt Q9UMS4) (Q9UMS4 whole entry): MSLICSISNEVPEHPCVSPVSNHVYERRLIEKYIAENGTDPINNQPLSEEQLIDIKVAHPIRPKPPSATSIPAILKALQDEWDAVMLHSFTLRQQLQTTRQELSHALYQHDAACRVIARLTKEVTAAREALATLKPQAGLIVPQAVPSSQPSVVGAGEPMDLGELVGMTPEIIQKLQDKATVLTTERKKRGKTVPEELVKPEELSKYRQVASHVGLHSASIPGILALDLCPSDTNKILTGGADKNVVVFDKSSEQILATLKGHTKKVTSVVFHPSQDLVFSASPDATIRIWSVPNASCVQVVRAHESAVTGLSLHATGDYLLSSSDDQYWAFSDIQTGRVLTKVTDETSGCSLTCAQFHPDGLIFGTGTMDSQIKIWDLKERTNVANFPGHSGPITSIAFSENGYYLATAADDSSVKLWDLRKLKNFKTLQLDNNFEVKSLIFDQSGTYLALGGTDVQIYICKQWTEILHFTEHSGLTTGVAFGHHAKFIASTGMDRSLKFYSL

[26] = biological target: proteins of U3A human fibrosarcoma cells (4462 proteins detected) (Homo sapiens, UniProt Q8N4Q1); details: protein CHCHD4; soluble abundance after heat, U3A cells
Sequence of proteins of U3A human fibrosarcoma cells (4462 proteins detected) (Homo sapiens, UniProt Q8N4Q1) (Q8N4Q1 whole entry): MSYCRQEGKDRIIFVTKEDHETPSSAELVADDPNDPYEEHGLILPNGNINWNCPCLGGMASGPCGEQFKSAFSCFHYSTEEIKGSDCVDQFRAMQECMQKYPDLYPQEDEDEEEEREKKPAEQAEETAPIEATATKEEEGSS

[27] = biological target: proteins of U3A human fibrosarcoma cells (4462 proteins detected) (Homo sapiens, UniProt Q16626); details: protein MEA1, U3A cells
Sequence of proteins of U3A human fibrosarcoma cells (4462 proteins detected) (Homo sapiens, UniProt Q16626) (Q16626 whole entry): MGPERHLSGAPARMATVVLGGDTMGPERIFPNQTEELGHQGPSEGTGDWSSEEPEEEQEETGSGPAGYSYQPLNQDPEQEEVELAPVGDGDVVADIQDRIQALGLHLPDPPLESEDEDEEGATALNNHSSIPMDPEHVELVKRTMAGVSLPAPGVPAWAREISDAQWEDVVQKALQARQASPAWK

[28] = biological target: proteins of U3A human fibrosarcoma cells (4462 proteins detected) (Homo sapiens, UniProt Q9Y237); details: protein PIN4, U3A cells
[29] = biological target: proteins of U3A human fibrosarcoma cells (4462 proteins detected) (Homo sapiens, UniProt Q5T5Y3); details: protein CAMSAP1; soluble abundance after heat, U3A cells

Sequence of proteins of U3A human fibrosarcoma cells (4462 proteins detected) (Homo sapiens, UniProt Q99848) (Q99848 whole entry): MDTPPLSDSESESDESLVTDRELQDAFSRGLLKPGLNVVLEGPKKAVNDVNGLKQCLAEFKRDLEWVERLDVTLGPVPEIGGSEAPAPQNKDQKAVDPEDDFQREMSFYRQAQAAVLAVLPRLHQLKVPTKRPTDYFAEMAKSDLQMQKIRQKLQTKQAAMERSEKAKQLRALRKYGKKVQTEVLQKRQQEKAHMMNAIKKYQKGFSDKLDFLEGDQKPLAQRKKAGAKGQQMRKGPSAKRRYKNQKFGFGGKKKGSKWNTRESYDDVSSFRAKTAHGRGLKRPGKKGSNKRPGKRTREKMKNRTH
Sequence of proteins of U3A human fibrosarcoma cells (4462 proteins detected) (Homo sapiens, UniProt Q5SZL2) (Q5SZL2 whole entry): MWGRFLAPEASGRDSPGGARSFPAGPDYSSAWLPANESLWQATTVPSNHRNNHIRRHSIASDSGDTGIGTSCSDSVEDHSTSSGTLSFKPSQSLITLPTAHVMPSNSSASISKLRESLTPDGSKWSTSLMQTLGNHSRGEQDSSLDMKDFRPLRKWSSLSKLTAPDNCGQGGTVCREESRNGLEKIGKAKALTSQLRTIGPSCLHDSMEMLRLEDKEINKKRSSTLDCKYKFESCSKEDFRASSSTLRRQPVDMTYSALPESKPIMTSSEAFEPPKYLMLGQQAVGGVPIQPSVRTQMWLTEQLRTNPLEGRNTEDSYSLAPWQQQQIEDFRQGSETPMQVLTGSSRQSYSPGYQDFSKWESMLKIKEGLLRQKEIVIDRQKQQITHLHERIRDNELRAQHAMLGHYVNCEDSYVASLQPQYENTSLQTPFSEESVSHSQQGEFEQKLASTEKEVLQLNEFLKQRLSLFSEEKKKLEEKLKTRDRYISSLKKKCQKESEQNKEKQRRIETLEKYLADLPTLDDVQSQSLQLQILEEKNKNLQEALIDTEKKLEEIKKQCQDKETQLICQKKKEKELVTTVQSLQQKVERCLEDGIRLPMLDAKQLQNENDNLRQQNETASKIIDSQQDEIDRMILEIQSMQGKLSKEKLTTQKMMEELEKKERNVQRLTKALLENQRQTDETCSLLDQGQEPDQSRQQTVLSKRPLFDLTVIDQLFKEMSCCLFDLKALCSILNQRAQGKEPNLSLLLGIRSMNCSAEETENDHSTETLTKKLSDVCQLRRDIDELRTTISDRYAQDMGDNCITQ

CCc1nc(N)nc(N)c1-c1ccc(Cl)cc1 [pyrimethamine]
Log2 (PYR/DMSO), CEP85L [1]: -0.24 | Log2 (PYR/DMSO) [2]: 0.21 | Log2 (PYR/DMSO), CASP8 [3]: 0.34 | Log2 (PYR/DMSO), PYCRL [4]: -0.15 | Log2 (PYR/DMSO) [5]: 0.17 | Log2 (PYR/DMSO) [6]: 0.20 | Log2 (PYR/DMSO) [7]: 0.13 | Log2 (PYR/DMSO) [8]: 0.17 | Log2 (PYR/DMSO), MRPS2 [9]: 0.25 | Log2 (PYR/DMSO) [10]: -0.04 | Log2 (PYR/DMSO) [11]: 0.15 | Log2 (PYR/DMSO), SUCLA2 [12]: 0.23 | Log2 (PYR/DMSO) [13]: 0.17 | Log2 (PYR/DMSO) [14]: 0.22 | Log2 (PYR/DMSO) [15]: 0.19 | Log2 (PYR/DMSO) [16]: -0.04 | Log2 (PYR/DMSO), CMC4 [17]: 0.24 | Log2 (PYR/DMSO) [18]: 0.16 | Log2 (PYR/DMSO), CEP97 [19]: -0.20 | Log2 (PYR/DMSO) [20]: -0.03 | Log2 (PYR/DMSO) [21]: -0.04 | Log2 (PYR/DMSO) [22]: 0.15 | Log2 (PYR/DMSO) [23]: -0.04 | Log2 (PYR/DMSO) [24]: 0.14 | Log2 (PYR/DMSO) [25]: 0.17 | Log2 (PYR/DMSO) [26]: 0.14 | Log2 (PYR/DMSO) [27]: -0.04 | Log2 (PYR/DMSO) [28]: -0.05 | Log2 (PYR/DMSO) [29]: 0.13

Source: article PMC8800111 (The Journal of Biological Chemistry, 2021)
